A short description of one series: cell toxicity CC50. It is filed as cell-based. Particulars: human; Hep-G2 cells; mean of at least two experiments; read-out: Cell Cytotoxicity CC50.
Series [1] relates to RSV (RSV A2 ECACC, 0709161v). The experiment in a line: RSV plaque reduction assay. The format is cell-based, respiratory syncytial virus. Particulars: human respiratory syncytial virus, HepG2, read-out: RSV A2 Plaque EC50, RSV A2 in Hep-G2 cells; mean of at least two experiments unless noted (n = 1). The method in brief:
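Eight-point compound dilutions were premixed with RSV A2 (100 PFU/well) and applied to confluent Hep-G2 cells for 2 h, followed by a 2-day incubation at 37° C. under compound-containing 0.8% CMC overlay. EC50 comes from immunostained plaque counts relative to untreated virus wells, averaged over ≥2 runs.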
For orientation: Plaques are areas of infected cells; plaque reduction assays count them against a control.

Molecules are shown by their SMILES.

Consider `C[C@@H]1CCn2nc(-c3cncc(Cl)c3)c(C(=O)N[C@H]3N=C(c4ccccc4)c4cccc(F)c4NC3=O)c2O1` [Example 47, (5R)-2-(5-Chloropyridin-3-yl)-5-methyl-N-[(3S)-9-fluoro-2-oxo-5-phenyl-1,3-dihydro-1,4-benzodiazepin-3-yl]-6,7-dihydro-5H-pyrazolo[5,1-b][1,3]oxazine-3-carboxamide], for which the CC50 – broadly, the concentration giving 50% cytotoxicity – in “cell toxicity CC50” is over 25000 nM. Also, in series [1], the EC50 – broadly, the concentration at which the effect is half-maximal – was 84 nM.
The like results for `CCc1ccc(-c2nn3c(c2C(=O)N[C@H]2N=C(c4ccccc4)c4cccc(F)c4NC2=O)O[C@H](C)CC3)c(C)n1` [Example 66, (5R)-2-(6-Ethyl-2-methyl-3-pyridyl)-N-[(3S)-9-fluoro-2-oxo-5-phenyl-1,3-dihydro-1,4-benzodiazepin-3-yl]-5-methyl-6,7-dihydro-5H-pyrazolo[5,1-b][1,3]oxazine-3-carboxamide] were, in that order, over 25000 nM and 60 nM.
`C[C@@H]1CCn2nc(-c3cnn(C4CC4)c3)c(C(=O)N[C@H]3N=C(c4ccccc4)c4ccccc4NC3=O)c2O1` [Example 125, (5R)-2-(1-Cyclopropylpyrazol-4-yl)-5-methyl-N-[(3S)-2-oxo-5-phenyl-1,3-dihydro-1,4-benzodiazepin-3-yl]-6,7-dihydro-5H-pyrazolo[5,1-b][1,3]oxazine-3-carboxamide]: in the series “cell toxicity CC50”, the CC50 was over 25000 nM. Moreover, the EC50 in series [1] stood at 70 nM.
Regarding `CCn1cc(-c2nn3c(c2C(=O)N[C@H]2N=C(c4ccccc4)c4cccc(F)c4NC2=O)OCCC3)cn1` [Example 99, 2-(1-Ethylpyrazol-4-yl)-N-[(3S)-9-fluoro-2-oxo-5-phenyl-1,3-dihydro-1,4-benzodiazepin-3-yl]-6,7-dihydro-5H-pyrazolo[5,1-b][1,3]oxazine-3-carboxamide], the CC50 in the series “cell toxicity CC50” was over 25000 nM. Moreover, in series [1], the EC50 was found to be 71 nM.
The like results for `Cc1cc(NC(C)C)ncc1-c1nn2c(c1C(=O)N[C@H]1N=C(c3ccccc3)c3cccc(F)c3NC1=O)O[C@H](C)CC2` [Example 92, (5R)-5-Methyl-2-[4-methyl-6-(propan-2-ylamino)pyridin-3-yl]-N-[(3S)-9-fluoro-2-oxo-5-phenyl-1,3-dihydro-1,4-benzodiazepin-3-yl]-6,7-dihydro-5H-pyrazolo[5,1-b][1,3]oxazine-3-carboxamide] were, in that order, over 25000 nM and 131 nM.
With `C[C@@H]1CCn2nc(-c3cnn(C4CC4)c3)c(C(=O)N[C@H]3N=C(c4ccccc4)c4cccc(F)c4NC3=O)c2O1` [Example 126, (5R)-2-(1-Cyclopropylpyrazol-4-yl)-N-[(3S)-9-fluoro-2-oxo-5-phenyl-1,3-dihydro-1,4-benzodiazepin-3-yl]-5-methyl-6,7-dihydro-5H-pyrazolo[5,1-b][1,3]oxazine-3-carboxamide], in the series “cell toxicity CC50”, the CC50 is over 25000 nM. Also, in series [1], the EC50 was 54 nM.
In the same order, the values of `CC(C)n1cc(-c2nn3c(c2C(=O)N[C@H]2N=C(c4ccccc4)c4cccc(F)c4NC2=O)OCCC3)cn1` [Example 148, N-[(3S)-9-fluoro-2-oxo-5-phenyl-1,3-dihydro-1,4-benzodiazepin-3-yl]-2-(1-propan-2-ylpyrazol-4-yl)-6,7-dihydro-5H-pyrazolo[5,1-b][1,3]oxazine-3-carboxamide] are over 25000 nM and 72 nM.
The like results for `COCCn1cc(-c2nn3c(c2C(=O)N[C@H]2N=C(c4ccccc4)c4cccc(F)c4NC2=O)O[C@H](C)CC3)cn1` [Example 119, (5R)-N-[(3S)-9-fluoro-2-oxo-5-phenyl-1,3-dihydro-1,4-benzodiazepin-3-yl]-2-[1-(2-methoxyethyl)pyrazol-4-yl]-5-methyl-6,7-dihydro-5H-pyrazolo[5,1-b][1,3]oxazine-3-carboxamide] were, in that order, over 25000 nM and 69 nM.
In the same order, the values of `C[C@@H]1CCn2nc(-c3cnn(CC(F)(F)F)c3)c(C(=O)N[C@H]3N=C(c4ccccc4)c4cccc(F)c4NC3=O)c2O1` [Example 118, (5R)-N-[(3S)-9-fluoro-2-oxo-5-phenyl-1,3-dihydro-1,4-benzodiazepin-3-yl]-5-methyl-2-[1-(2,2,2-trifluoroethyl)pyrazol-4-yl]-6,7-dihydro-5H-pyrazolo[5,1-b][1,3]oxazine-3-carboxamide] are over 25000 nM and 43 nM.
With `COc1cc(-c2nn3c(c2C(=O)N[C@H]2N=C(c4ccccc4)c4cccc(F)c4NC2=O)O[C@H](C)CC3)ccn1` [Example 48, (5R)-2-(2-Methoxypyridin-4-yl)-5-methyl-N-[(3S)-9-fluoro-2-oxo-5-phenyl-1,3-dihydro-1,4-benzodiazepin-3-yl]-6,7-dihydro-5H-pyrazolo[5,1-b][1,3]oxazine-3-carboxamide], in the series “cell toxicity CC50”, the CC50 is over 25000 nM. In series [1], the EC50 was 246 nM.
In the same order, the values of `O=C(N[C@H]1N=C(c2ccccc2)c2cccc(F)c2NC1=O)c1c(Br)nn2c1OCCC2` [Example 195, 2-Bromo-N-[(3S)-9-fluoro-2-oxo-5-phenyl-1,3-dihydro-1,4-benzodiazepin-3-yl]-6,7-dihydro-5H-pyrazolo[5,1-b][1,3]oxazine-3-carboxamide] are over 25000 nM and 355 nM.
With `[2H]C([2H])([2H])Nc1ccc(-c2nn3c(c2C(=O)N[C@H]2N=C(c4ccccc4)c4cccc(F)c4NC2=O)O[C@H](C)CC3)cn1` [Example 71, (5R)-5-Methyl-N-[(3S)-9-fluoro-2-oxo-5-phenyl-1,3-dihydro-1,4-benzodiazepin-3-yl]-2-[6-(trideuteriomethylamino)pyridin-3-yl]-6,7-dihydro-5H-pyrazolo[5,1-b][1,3]oxazine-3-carboxamide], the 50% cytotoxic concentration (CC50) in the series “cell toxicity CC50” is over 25000 nM. Besides, the EC50 in series [1] is 91 nM.
The like results for `CC(C)n1cc(-c2nn3c(c2C(=O)N[C@H]2N=C(c4ccccc4)c4ccccc4NC2=O)OCCC3)cn1` [Example 103, N-[(3S)-2-oxo-5-phenyl-1,3-dihydro-1,4-benzodiazepin-3-yl]-2-(1-propan-2-ylpyrazol-4-yl)-6,7-dihydro-5H-pyrazolo[5,1-b][1,3]oxazine-3-carboxamide] were, in that order, over 25000 nM and 132 nM.
The like results for `C[C@@H]1CCn2nc(-c3ccc(N4CCOCC4)nc3)c(C(=O)N[C@H]3N=C(c4ccccc4)c4cccc(F)c4NC3=O)c2O1` [Example 56, (5R)-N-[(3S)-9-fluoro-2-oxo-5-phenyl-1,3-dihydro-1,4-benzodiazepin-3-yl]-5-methyl-2-(6-morpholino-3-pyridyl)-6,7-dihydro-5H-pyrazolo[5,1-b][1,3]oxazine-3-carboxamide] were, in that order, over 25000 nM and 123 nM.
In the same order, the values of `CN(CC1COc2c(C(=O)N[C@H]3N=C(c4ccccc4)c4cccc(F)c4NC3=O)c(-c3ccccc3F)nn2C1)C1COC1` (stereo partly drawn) [Example 169, N-[(3S)-9-fluoro-2-oxo-5-phenyl-1,3-dihydro-1,4-benzodiazepin-3-yl]-2-(2-fluorophenyl)-6-[[methyl(oxetan-3-yl)amino]methyl]-6,7-dihydro-5H-pyrazolo[5,1-b][1,3]oxazine-3-carboxamide] are over 25000 nM and 114 nM.
As for `C[C@@H]1CCn2nc(-c3ccc(F)cc3F)c(C(=O)N[C@H]3N=C(c4ccccc4)c4cccc(F)c4NC3=O)c2O1` [Example 82, (5R)-2-(2,4-Difluorophenyl)-5-methyl-N-[(3S)-9-fluoro-2-oxo-5-phenyl-1,3-dihydro-1,4-benzodiazepin-3-yl]-6,7-dihydro-5H-pyrazolo[5,1-b][1,3]oxazine-3-carboxamide], the CC50 in the series “cell toxicity CC50” was over 25000 nM. Also, the EC50 in series [1] amounted to 31 nM.
The like results for `CCNCC1COc2c(C(=O)N[C@H]3N=C(c4ccccc4)c4cccc(F)c4NC3=O)c(-c3ccccc3F)nn2C1` (stereo partly drawn) [Example 192, 6-(Ethylaminomethyl)-N-[(3S)-9-fluoro-2-oxo-5-phenyl-1,3-dihydro-1,4-benzodiazepin-3-yl]-2-(2-fluorophenyl)-6,7-dihydro-5H-pyrazolo[5,1-b][1,3]oxazine-3-carboxamide] were, in that order, over 24400 nM and 243 nM.
Regarding `CN(CC1COc2c(C(=O)N[C@H]3N=C(c4ccccc4)c4cccc(F)c4NC3=O)c(-c3ccccc3F)nn2C1)C1CCOCC1` (stereo partly drawn) [Example 168, N-[(3S)-9-fluoro-2-oxo-5-phenyl-1,3-dihydro-1,4-benzodiazepin-3-yl]-2-(2-fluorophenyl)-6-[[methyl(oxan-4-yl)amino]methyl]-6,7-dihydro-5H-pyrazolo[5,1-b][1,3]oxazine-3-carboxamide], the CC50 in the series “cell toxicity CC50” is over 25000 nM. Further, in series [1], the EC50 was 104 nM.
Turning to `O=C(N[C@H]1N=C(c2ccccc2)c2cccc(F)c2NC1=O)c1c(-c2ccccc2)nn2c1OCCC2` [Example 23, N-[(3S)-9-fluoro-2-oxo-5-phenyl-1,3-dihydro-1,4-benzodiazepin-3-yl]-2-phenyl-6,7-dihydro-5H-pyrazolo[5,1-b][1,3]oxazine-3-carboxamide], in the series “cell toxicity CC50”, the CC50 was over 25000 nM. The EC50 in series [1] came out at 60 nM.
In the case of `CC1CCn2nc(Cc3ccccc3)c(C(=O)N[C@H]3N=C(c4ccccc4)c4cccc(F)c4NC3=O)c2O1` (stereo in doubt) [Example 109, (5S)-2-Benzyl-N-[(3S)-9-fluoro-2-oxo-5-phenyl-1,3-dihydro-1,4-benzodiazepin-3-yl]-5-methyl-6,7-dihydro-5H-pyrazolo[5,1-b][1,3]oxazine-3-carboxamide], the CC50 in “cell toxicity CC50” is over 25000 nM. Further, in series [1], the EC50 amounted to 114 nM.
In the same order, the values of `C[C@H]1COc2c(C(=O)N[C@H]3N=C(c4ccccc4)c4cccc(F)c4NC3=O)c(-c3ccccc3F)nn2C1` [Example 10, (6R)-N-[(3S)-9-fluoro-2-oxo-5-phenyl-1,3-dihydro-1,4-benzodiazepin-3-yl]-2-(2-fluorophenyl)-6-methyl-6,7-dihydro-5H-pyrazolo[5,1-b][1,3]oxazine-3-carboxamide] are over 25000 nM and 23 nM.

The record behind these values is US12678446B2 (PFIZER INC., priority 2020, dated 2026).
